# Experiments:
# [1] = system: wild mustard; assay: Test D preemergence; format: in vivo, Sinapis arvensis; settings: Brassica, pre-emergence
# Procedure, shortened: (§1)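 Solvent/surfactant formulations are sprayed pre (silt loam) or post (1–4 leaf plants, 2–18 cm). Plants stay 7–21 days in controlled conditions before a visual 0–100 score is given.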
# [2] = system: Italian ryegrass; assay: Test D preemergence; format: in vivo, Lolium multiflorum; settings: Lolium multiflorum, pre-emergence
# Procedure, shortened: as §1
# [3] = system: chamomile; assay: Test D postemergence; format: in vivo, Matricaria inodora; settings: Tripleurospermum inodorum, post-emergence
# Procedure, shortened: as §1
# [4] = system: speedwell; assay: Test D preemergence; format: in vivo, Veronica persica; settings: Veronica persica, pre-emergence
# Procedure, shortened: as §1
# [5] = system: wild radish; assay: Test D postemergence; format: in vivo, Raphanus raphanistrum; settings: Raphanus raphanistrum, post-emergence
# Procedure, shortened: as §1
# [6] = system: windgrass; assay: Test D preemergence; format: in vivo, Apera spica-venti; settings: Apera spica-venti, pre-emergence
# Procedure, shortened: as §1
# [7] = system: lambsquarters; assay: Test D preemergence; format: in vivo, Chenopodium album; settings: Chenopodium album, pre-emergence
# Procedure, shortened: as §1
# [8] = system: windgrass; assay: Test D postemergence; format: in vivo, Apera spica-venti; settings: Apera spica-venti, post-emergence
# Procedure, shortened: as §1
# [9] = system: wild buckwheat; assay: Test D postemergence; format: in vivo, Polygonum convolvulus; settings: Fallopia convolvulus, post-emergence, Postemergence, scale 0 to 100 (0 no effect, 100 complete control), read-out: Plant response rating, Buckwheat, Wild
# Procedure, shortened: as §1
# [10] = system: blackgrass; assay: Test D postemergence; format: in vivo, Alopecurus myosuroides; settings: Alopecurus myosuroides, post-emergence, Postemergence, scale 0 to 100 (0 no effect, 100 complete control), read-out: Plant response rating, Blackgrass
# Procedure, shortened: as §1
# [11] = system: chickweed; assay: Test D preemergence; format: in vivo, Stellaria media; settings: Stellaria media, pre-emergence
# Procedure, shortened: as §1
# [12] = system: green foxtail; assay: Test D postemergence; format: in vivo, Setaria viridis; settings: Setaria viridis, post-emergence
# Procedure, shortened: as §1
# [13] = system: canarygrass; assay: Test D preemergence; format: in vivo, Phalaris minor; settings: Phalaris minor, pre-emergence
# Procedure, shortened: as §1
# [14] = system: pigweed; assay: Test D preemergence; format: in vivo, Amaranthus retroflexus; settings: Amaranthus retroflexus, pre-emergence
# Procedure, shortened: as §1
smiles,measurement,setting,value
"Fc1cccc(Oc2ncc(Cl)cn2)c1-n1cc(C(F)F)nn1 [Compound 141, 5-chloro-2-[2-[4-(difluoromethyl)-1H-1,2,3-triazol-1-yl]-3-fluorophenoxy]pyrimidine]",pest or weed control at 16 g/ha,"[1]; 16 g ai/ha, scale 0 (no effect) to 100 (complete control), read-out: Plant response rating, Mustard, Wild",90%
same,pest or weed control at 31 g/ha,"[1]; 31 g ai/ha, scale 0-100, read-out: Plant response rating, Mustard, Wild",100%
same,pest or weed control at 62 g/ha,"[1]; 62 g ai/ha, scale 0-100, read-out: Plant response rating, Mustard, Wild",100%
same,pest or weed control at 125 g/ha,"[1]; 125 g ai/ha, scale 0-100, read-out: Plant response rating, Mustard, Wild",100%
same,pest or weed control at 16 g/ha,"[2]; 16 g ai/ha, scale 0 (no effect) to 100 (complete control), read-out: Plant response rating, Ryegrass, Italian",35%
same,pest or weed control at 31 g/ha,"[2]; 31 g ai/ha, scale 0 (no effect) to 100 (complete control), read-out: Plant response rating, Ryegrass, Italian",55%
same,pest or weed control at 62 g/ha,"[2]; 62 g ai/ha, scale 0-100, read-out: Plant response rating, Ryegrass, Italian",70%
same,pest or weed control at 125 g/ha,"[2]; 125 g ai/ha, scale 0-100, read-out: Plant response rating, Ryegrass, Italian",75%
same,pest or weed control at 16 g/ha,"[3]; 16 g ai/ha, scale 0-100, read-out: Plant response rating, Chamomile",10%
same,pest or weed control at 31 g/ha,"[3]; 31 g ai/ha, scale 0 to 100 (0 no effect, 100 complete control), read-out: Plant response rating, Chamomile",20%
same,pest or weed control at 62 g/ha,"[3]; 62 g ai/ha, scale 0 to 100 (0 no effect, 100 complete control), read-out: Plant response rating, Chamomile",15%
same,pest or weed control at 125 g/ha,"[3]; 125 g ai/ha, scale 0 to 100 (0 no effect, 100 complete control), read-out: Plant response rating, Chamomile",20%
same,pest or weed control at 16 g/ha,"[4]; 16 g ai/ha, scale 0 (no effect) to 100 (complete control), read-out: Plant response rating, Speedwell",100%
same,pest or weed control at 31 g/ha,"[4]; 31 g ai/ha, scale 0 (no effect) to 100 (complete control), read-out: Plant response rating, Speedwell",100%
same,pest or weed control at 62 g/ha,"[4]; 62 g ai/ha, scale 0-100, read-out: Plant response rating, Speedwell",100%
same,pest or weed control at 125 g/ha,"[4]; 125 g ai/ha, scale 0-100, read-out: Plant response rating, Speedwell",100%
same,pest or weed control at 16 g/ha,"[5]; 16 g ai/ha, scale 0-100, read-out: Plant response rating, Radish, Wild",90%
same,pest or weed control at 31 g/ha,"[5]; 31 g ai/ha, scale 0 to 100 (0 no effect, 100 complete control), read-out: Plant response rating, Radish, Wild",95%
same,pest or weed control at 62 g/ha,"[5]; 62 g ai/ha, scale 0 to 100 (0 no effect, 100 complete control), read-out: Plant response rating, Radish, Wild",100%
same,pest or weed control at 125 g/ha,"[5]; 125 g ai/ha, scale 0 to 100 (0 no effect, 100 complete control), read-out: Plant response rating, Radish, Wild",100%
same,pest or weed control at 16 g/ha,"[6]; 16 g ai/ha, scale 0 (no effect) to 100 (complete control), read-out: Plant response rating, Windgrass",35%
same,pest or weed control at 31 g/ha,"[6]; 31 g ai/ha, scale 0 (no effect) to 100 (complete control), read-out: Plant response rating, Windgrass",70%
same,pest or weed control at 62 g/ha,"[6]; 62 g ai/ha, scale 0-100, read-out: Plant response rating, Windgrass",85%
same,pest or weed control at 125 g/ha,"[6]; 125 g ai/ha, scale 0-100, read-out: Plant response rating, Windgrass",100%
same,pest or weed control at 16 g/ha,"[7]; 16 g ai/ha, scale 0 (no effect) to 100 (complete control), read-out: Plant response rating, Lambsquarters",100%
same,pest or weed control at 31 g/ha,"[7]; 31 g ai/ha, scale 0-100, read-out: Plant response rating, Lambsquarters",100%
same,pest or weed control at 62 g/ha,"[7]; 62 g ai/ha, scale 0-100, read-out: Plant response rating, Lambsquarters",100%
same,pest or weed control at 125 g/ha,"[7]; 125 g ai/ha, scale 0-100, read-out: Plant response rating, Lambsquarters",100%
same,pest or weed control at 16 g/ha,"[8]; 16 g ai/ha, scale 0-100, read-out: Plant response rating, Windgrass",5%
same,pest or weed control at 31 g/ha,"[8]; 31 g ai/ha, scale 0 to 100 (0 no effect, 100 complete control), read-out: Plant response rating, Windgrass",10%
same,pest or weed control at 62 g/ha,"[8]; 62 g ai/ha, scale 0 to 100 (0 no effect, 100 complete control), read-out: Plant response rating, Windgrass",50%
same,pest or weed control at 125 g/ha,"[8]; 125 g ai/ha, scale 0 to 100 (0 no effect, 100 complete control), read-out: Plant response rating, Windgrass",60%
same,pest or weed control at 16 g/ha,[9]; 16 g ai/ha,100%
same,pest or weed control at 31 g/ha,[9]; 31 g ai/ha,100%
same,pest or weed control at 62 g/ha,[9]; 62 g ai/ha,100%
same,pest or weed control at 125 g/ha,[9]; 125 g ai/ha,100%
same,pest or weed control at 62 g/ha,[10]; 62 g ai/ha,35%
same,pest or weed control at 16 g/ha,[10]; 16 g ai/ha,10%
same,pest or weed control at 31 g/ha,[10]; 31 g ai/ha,25%
same,pest or weed control at 125 g/ha,[10]; 125 g ai/ha,55%
same,pest or weed control at 16 g/ha,"[11]; 16 g ai/ha, scale 0 (no effect) to 100 (complete control), read-out: Plant response rating, Chickweed",100%
same,pest or weed control at 31 g/ha,"[11]; 31 g ai/ha, scale 0-100, read-out: Plant response rating, Chickweed",100%
same,pest or weed control at 62 g/ha,"[11]; 62 g ai/ha, scale 0-100, read-out: Plant response rating, Chickweed",100%
same,pest or weed control at 125 g/ha,"[11]; 125 g ai/ha, scale 0-100, read-out: Plant response rating, Chickweed",100%
same,pest or weed control at 16 g/ha,"[12]; 16 g ai/ha, scale 0-100, read-out: Plant response rating, Foxtail, Green",15%
same,pest or weed control at 31 g/ha,"[12]; 31 g ai/ha, scale 0 to 100 (0 no effect, 100 complete control), read-out: Plant response rating, Foxtail, Green",20%
same,pest or weed control at 62 g/ha,"[12]; 62 g ai/ha, scale 0 to 100 (0 no effect, 100 complete control), read-out: Plant response rating, Foxtail, Green",45%
same,pest or weed control at 125 g/ha,"[12]; 125 g ai/ha, scale 0 to 100 (0 no effect, 100 complete control), read-out: Plant response rating, Foxtail, Green",100%
same,pest or weed control at 16 g/ha,"[13]; 16 g ai/ha, scale 0 (no effect) to 100 (complete control), read-out: Plant response rating, Canarygrass",35%
same,pest or weed control at 31 g/ha,"[13]; 31 g ai/ha, scale 0-100, read-out: Plant response rating, Canarygrass",75%
same,pest or weed control at 62 g/ha,"[13]; 62 g ai/ha, scale 0-100, read-out: Plant response rating, Canarygrass",100%
same,pest or weed control at 125 g/ha,"[13]; 125 g ai/ha, scale 0-100, read-out: Plant response rating, Canarygrass",100%
same,pest or weed control at 16 g/ha,"[14]; 16 g ai/ha, scale 0 (no effect) to 100 (complete control), read-out: Plant response rating, Pigweed",98%
same,pest or weed control at 31 g/ha,"[14]; 31 g ai/ha, scale 0 (no effect) to 100 (complete control), read-out: Plant response rating, Pigweed",100%
same,pest or weed control at 62 g/ha,"[14]; 62 g ai/ha, scale 0-100, read-out: Plant response rating, Pigweed",100%
same,pest or weed control at 125 g/ha,"[14]; 125 g ai/ha, scale 0-100, read-out: Plant response rating, Pigweed",100%

# From patent US9695155B2, “Herbicidal substituted pyrimidinyloxy benzene compounds” (E. I. DU PONT DE NEMOURS AND COMPANY, priority 2013, dated 2017)
